# Patent US11498923B2 (Merck Sharp & Dohme Corp., priority 2017, dated 2022)
# Molecular target: T1, human A2a receptor (Homo sapiens, UniProt P29274)
# T1 construct: purchased Perkin-Elmer RBHA2AM400UA; host or cells: HEK293 cells, used as a membrane preparation
# Assay: A2a receptor competition binding assay (Scintillation Proximity)
# Conditions: membranes from HEK293 cells expressing human A2a receptor; 0.5 nM tritiated ligand; Cheng-Prusoff; read-out: A2a Ki
# In short: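 Ki values were obtained with the Cheng-Prusoff equation from competition curves against 0.5 nM tritiated antagonist, scintillation proximity counting after 1 h room-temperature incubation. Receptor came from HEK293 membranes pretreated with adenosine deaminase; compound final range 3000–0.15 nM, buffer Ca/Mg-free PBS with 10 mM MgCl2.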
# T1 sequence (P29274 whole entry): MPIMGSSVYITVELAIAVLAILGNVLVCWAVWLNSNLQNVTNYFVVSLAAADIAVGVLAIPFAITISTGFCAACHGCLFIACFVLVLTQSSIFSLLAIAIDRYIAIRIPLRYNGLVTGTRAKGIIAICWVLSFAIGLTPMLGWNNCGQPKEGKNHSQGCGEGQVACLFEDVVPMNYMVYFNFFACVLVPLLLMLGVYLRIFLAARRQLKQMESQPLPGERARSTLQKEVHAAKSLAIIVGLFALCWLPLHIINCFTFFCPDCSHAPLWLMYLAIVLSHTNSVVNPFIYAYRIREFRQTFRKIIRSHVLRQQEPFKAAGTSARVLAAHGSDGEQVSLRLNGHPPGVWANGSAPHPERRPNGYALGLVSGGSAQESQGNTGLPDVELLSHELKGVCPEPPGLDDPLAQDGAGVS
row,SMILES,Ki
1,"COc1cccc2c1nc(N)n1cc(C(=O)N3CCCC(F)(F)CC3)nc21 [Ex-178, (5-amino-7-methoxyimidazo[1,2-c]quinazolin-2-yl)(4,4-difluoroazepan-1-yl)methanone]",27 nM
2,"COc1cccc2c1nc(N)n1cc(C(=O)N3CCCCC3C)nc21 (stereo not drawn) [Ex-195, (5-amino-7-methoxyimidazo[1,2-c]quinazolin-2-yl)(2-methylpiperidin-1-yl)methanone]",10 nM
3,"Nc1nc2c(F)cccc2c2nc(CN3CCN(CCc4ccccc4)CC3)cn12 [Ex-113, 7-fluoro-2-((4-phenethylpiperazin-1-yl)methyl)imidazo-[1,2-c]quinazolin-5-amine]",76 nM
4,"CC(C)(C)OC(=O)N1CCCC2(CCN(C(=O)c3cn4c(N)nc5c(F)cccc5c4n3)CC2)C1 [Ex-265, tert-butyl 9-(5-amino-7-fluoroimidazo[1,2-c]quinazoline-2-carbonyl)-2,9-diazaspiro[5.5]undecane-2-carboxylate]",86 nM
5,"Nc1nc2c(Br)cccc2c2nc(CNCc3cccnc3)cn12 [Ex-141, 7-bromo-2-(((pyridin-3-ylmethyl)amino)methyl) imidazo[1,2-c]quinazolin-5-amine]",9.5 nM
6,"Nc1nc2c(F)cccc2c2nc(C(=O)N3CCc4ccc(NC(=O)c5ccccn5)cc4C3)cn12 [Ex-291, N-(2-(5-amino-7-fluoroimidazo[1,2-c]quinazoline-2-carbonyl)-1,2,3,4-tetrahydroisoquinolin-7-yl)picolinamide]",47 nM
7,"COc1cccc2c1nc(N)n1cc(C(=O)N3CCC(=O)C3)nc21 [Ex-238, 1-(5-amino-7-methoxyimidazo[1,2-c]quinazoline-2-carbonyl)pyrrolidin-3-one]",170 nM
8,"Nc1nc2c(F)cccc2c2nc(CC3CCN(CC4CC4)CC3)cn12 [Ex-305, 2-((1-(cyclopropyl-methyl)piperidin-4-yl)methyl)-7-fluoro-imidazo[1,2-c]quina-zolin-5-amine]",220 nM
9,"COc1cccc2c1nc(N)n1cc(C(=O)N3CC(C)(C)OC(C)(C)C3)nc21 [Ex-223, (5-amino-7-methoxyimidazo[1,2-c]quinazolin-2-yl)(2,2,6,6-tetramethylmorpholino) methanone]",210 nM
10,"COc1cccc2c1nc(N)n1cc(CN3CCN(c4ccccc4)CC3)nc21 [Ex-110, 7-methoxy-2-((4-phenylpiperazin-1-yl)methyl)imidazo[1,2-c]quinazolin-5-amine]",53.2 nM
11,"Nc1nc2ccccc2c2nc(Cc3cccc4cccnc34)cn12 [Ex-15, 2-(quinolin-8-ylmethyl)imidazo[1,2-c]quinazolin-5-amine]",2 nM
12,"COc1cccc2c1nc(N)n1cc(C(=O)N3CCCC(OC)(OC)C3)nc21 [Ex-232, (5-amino-7-methoxyimidazo[1,2-c]quinazolin-2-yl)(3,3-dimethoxypiperidin-1-yl)methanone]",18 nM
13,"Nc1nc2c(F)cccc2c2nc(CC3CCN(C(=O)c4cccnc4)CC3)cn12 [Ex-317, (4-((5-amino-7-fluoroimidazo-[1,2-c]quinazolin-2-yl)methyl)piperidin-1-yl)(pyridin-3-yl)-methanone]",100 nM
14,"COc1cccc2c1nc(N)n1cc(Cc3cccnc3-c3cncnc3)nc21 [Ex-80, 7-methoxy-2-((2-(pyrimidin-5-yl)pyridin-3-yl)methyl)imidazo[1,2-c]quinazolin-5-amine]",11 nM
15,"Nc1nc2c(F)cccc2c2nc(C(=O)NCc3ccccc3N3CCN(CCCO)CC3)cn12 [Ex-271, 5-amino-7-fluoro-N-(2-(4-(3-hydroxypropyl)-piperazin-1-yl)benzyl)-imidazo[1,2-c]-quinazoline-2-carboxamide]",12 nM
16,"COc1cccc2c1nc(N)n1cc(C(=O)N3CCCC3C(C)C)nc21 (stereo not drawn) [Ex-209, (5-amino-7-methoxyimidazo[1,2-c]quinazolin-2-yl)(2-isopropylpyrrolidin-1-yl)methanone]",2.9 nM
17,"COc1cccc2c1nc(N)n1cc(CN3Cc4cccnc4C3)nc21 [Ex-122, 2-((5,7-dihydro-6H-pyrrolo[3,4-b]pyridin-6-yl)methyl)-7-methoxyimidazo[1,2-c]quinazolin-5-amine]",11 nM
18,"Nc1nc2ccccc2c2nc(C(=O)NCc3cccc4cccnc34)cn12 [Ex-161, 5-amino-N-(quinolin-8-ylmethyl)-imidazo-[1,2-c]-quinazoline-2-carboxamide]",39.4 nM
19,"CC(=O)Nc1ccc2c(c1)CCN(C(=O)c1cn3c(N)nc4c(F)cccc4c3n1)C2 [Ex-288, N-(2-(5-amino-7-fluoroimidazo[1,2-c]quinazoline-2-carbonyl)-1,2,3,4-tetrahydroisoquinolin-6-yl)acetamide]",55 nM
20,"COc1cccc2c1nc(N)n1cc(Cc3cccc(F)c3)nc21 [Ex-22, 2-(3-fluorobenzyl)-7-methoxyimidazo[1,2-c]quinazolin-5-amine]",1.9 nM
21,"Nc1nc2c(F)cccc2c2nc(CN3CCCc4cc(Br)ccc43)cn12 [Ex-125, 2-((6-bromo-3,4-dihydroquinolin-1(2H)-yl)methyl)-7-fluoroimidazo[1,2-c]quinazolin-5-amine]",8.1 nM

row,SMILES,Ki
1,"Nc1nc2c(F)cccc2c2nc(C(=O)NCc3ccccc3N3CCOCC3)cn12 [Ex-250, 5-amino-7-fluoro-N-(2-morpholinobenzyl)imidazo [1,2-c]quinazoline-2-carboxamide]",2 nM
2,"CC(=O)N1CCc2c(Cc3cn4c(N)nc5c(F)cccc5c4n3)cccc2C1 [Ex-53, 1-(5-((5-amino-7-fluoroimidazo[1,2-c]quinazolin-2-yl)methyl)-3,4-dihydroisoquinolin-2(1H)-yl)ethan-1-one]",3.7 nM
3,"N#Cc1ccc(N2CCC3(CCN(C(=O)c4cn5c(N)nc6c(F)cccc6c5n4)C3)C2)c(F)c1 (stereo not drawn) [Ex-275, 4-(7-(5-amino-7-fluoroimidazo[1,2-c]quinazoline-2-carbonyl)-2,7-diazaspiro[4.4]nonan-2-yl)-3-fluorobenzonitrile]",43 nM
4,"Nc1nc2c(F)cccc2c2nc(-c3ccccc3CO)cn12 [Ex-107, (2-(5-amino-7-fluoroimidazo[1,2-c]quinazolin-2-yl)phenyl)methanol]",4.3 nM
5,"Nc1nc2c(F)cccc2c2nc(CCc3ccccn3)cn12 [Ex-101, 7-fluoro-2-(2-(pyridin-2-yl)ethyl)imidazo[1,2-c]quinazolin-5-amine]",8.5 nM
6,"Nc1nc2c(F)cccc2c2nc(Cc3ccc(C(=O)NCCN4CCOCC4)cc3)cn12 [Ex-90, 4-((5-amino-7-fluoroimidazo[1,2-c]quinazolin-2-yl)methyl)-N-(2-morpholinoethyl)benzamide]",66 nM
7,"Nc1nc2ccccc2c2nc(Cc3ccccc3)cn12 [Ex-02, 2-benzylimidazo[1,2-c]quinazolin-5-amine]",5.8 nM
8,"Nc1nc2c(F)cccc2c2nc(CC3CCN(Cc4ccccc4)CC3)cn12 [Ex-304, 2-((1-benzylpiperidin-4-yl)methyl)-7-fluoro-imidazo[1,2-c]quina-zolin-5-amine]",45 nM
9,"Nc1nc2c(F)cccc2c2nc(CN3CCN(C(=O)Cc4ccccn4)c4ccccc43)cn12 [Ex-136, 1-(4-((5-amino-7-fluoroimidazo[1,2-c]quinazolin-2-yl)methyl)-3,4-dihydroquinoxalin-1(2H)-yl)-2-(pyridin-2-yl)ethan-1-one]",12 nM
10,"COc1cccc2c1nc(N)n1cc(CCc3ccccc3)nc21 [Ex-102, 7-methoxy-2-phenethylimidazo[1,2-c]quinazolin-5-amine]",3.8 nM
11,"COc1c(F)ccc2c1nc(N)n1cc(Cc3ccccc3)nc21 [Ex-11, 2-benzyl-8-fluoro-7-methoxyimidazo[1,2-c]quinazolin-5-amine]",2 nM
12,"Nc1nc2cc(F)ccc2c2nc(Cc3ccccc3)cn12 [Ex-07, 2-benzyl-8-fluoroimidazo[1,2-c]quinazolin-5-amine]",4.6 nM
13,"COc1cccc2c1nc(N)n1cc(C(=O)N3CC(C)CC(C)C3)nc21 (stereo not drawn) [Ex-167, (5-amino-7-methoxyimidazo[1,2-c]quinazolin-2-yl)(3,5-dimethylpiperidin-1-yl)methanone]",16 nM
14,"Nc1nc2c(F)cccc2c2nc(C(=O)NCc3cccc(N4CCOCC4)c3)cn12 [Ex-257, 5-amino-7-fluoro-N-(3-morpholino-benzyl)imidazo-[1,2-c]-quinazoline-2-carboxamide]",3.6 nM
15,"COc1cccc2c1nc(N)n1cc(C(=O)N3C(C)CCC3C)nc21 (stereo not drawn) [Ex-210, (5-amino-7-methoxyimidazo[1,2-c]quinazolin-2-yl)(2,5-dimethylpyrrolidin-1-yl)methanone]",6.1 nM
16,"COc1cccc2c1nc(N)n1cc(C(=O)N3CCC4(CCOC4=O)CC3)nc21 [Ex-228, 8-(5-amino-7-methoxyimidazo[1,2-c]quinazoline-2-carbonyl)-2-oxa-8-azaspiro[4.5]decan-1-one]",180 nM
17,"COc1cccc2c1nc(N)n1cc(Cc3cccnc3N3CCN(C)CC3)nc21 [Ex-51, 7-methoxy-2-((2-(4-methylpiperazin-1-yl)pyridin-3-yl)methyl)imidazo[1,2-c]quinazolin-5-amine]",23.9 nM
18,"COc1cccc2c1nc(N)n1cc(C(=O)N3CCC4(CC3)OCCC4(C)C)nc21 [Ex-234, (5-amino-7-methoxyimidazo[1,2-c]quinazolin-2-yl)(4,4-dimethyl-1-oxa-8-azaspiro[4.5]decan-8-yl)methanone]",2.6 nM
19,"CCn1cc(-c2cccc3c2nc(N)n2cc(CN(C)Cc4cccc(Cl)c4)nc32)cn1 [Ex-151, 2-(((3-chlorobenzyl)-(methyl)amino)-methyl)-7-(1-ethyl-1H-pyrazol-4-yl)imidazo[1,2-c]-quinazolin-5-amine]",> 2200 nM
20,"Nc1nc2c(F)cccc2c2nc(Cc3cccc(-c4ccc5nonc5c4)c3)cn12 [Ex-77, 2-(3-(benzo[c][1,2,5]oxadiazol-5-yl)benzyl)-7-fluoroimidazo[1,2-c]quinazolin-5-amine]",12 nM
21,"Nc1nc2c(Br)cccc2c2nc(CNCc3ccccc3)cn12 [Ex-140, 2-((benzylamino)methyl)-7-bromoimidazo[1,2-c]quinazolin-5-amine]",9.1 nM
